In ChEMBL document CHEMBL1130885, “A potent and selective inhibition of parainfluenza 1 (Sendai) virus by new 6-oxiranyl-, 6-methyloxiranyluracils, and 4(3H)-pyrimidinone derivatives” (1998) one finds MTC, EC50 and CC50 data, which are given here for 14 compounds.

Test [1] relates to MDCK. The test can be described thus: Minimum toxic concentration required to cause microscopically detectable alteration of confluent madin Darby canine kidney (MDCK)cell morphology. The class given is functional, Canis lupus familiaris.
For test [2], the system named is MDCK. The test can be described thus: Antiviral activity against parainfluenza 1 (sendai) virus was determined in madin Darby canine kidney (MDCK)i cells. Format: functional, Canis lupus familiaris. The settings on record: read-out: ED50 (the source's name).
The species entered for a further test is Mus musculus. The test is described as follows: Inhibitory concentration required to inhibit proliferation in mouse myeloma cells. The class given is functional.

Broadly, the CC50 is the concentration that lowers cell viability or growth by half.

For `CC1OC1(C)Cc1cc(=O)n(C)c(OC2CCCCC2)n1` (configuration not stated), the MTC with MDCK [1] came out at 342 µM. Moreover, the EC50 in the test with MDCK [2] (Canis lupus familiaris, MDCK) amounted to 171000 nM. The CC50 in the test filed under Mus musculus (Mus musculus) was > 342 µM.
For `Cn1c(CC23CCCCC2O3)cc(=O)n(C)c1=O` (configuration not stated), in that order: >2 µM, > 2000 nM and 40 µM.
Turning to `Cn1c(CC2(C)CO2)cc(=O)n(C)c1=O` (configuration not stated), the MTC in the test with MDCK [1] came to 0.48 µM. Also, the EC50 in the test with MDCK [2] (Canis lupus familiaris, MDCK) amounted to 240 nM. In the test filed under Mus musculus (Mus musculus), the CC50 came out at 4 µM.
The corresponding values for `CCCOc1nc(CC2(c3ccccc3)CO2)cc(=O)n1C` (configuration not stated) are 330 µM, 16600 nM and > 30 µM.
The corresponding values for `C[C@H]1O[C@@]1(C)Cc1cc(=O)n(C)c(=O)n1C` are >2 µM, > 2000 nM and 89 µM.
`C[C@@H]1O[C@@]1(C)Cc1cc(=O)n(C)c(=O)n1C`: in the test on MDCK [1], the MTC was >2 µM. Moreover, the EC50 in the test with MDCK [2] (Canis lupus familiaris, MDCK) was > 2000 nM. The same compound came in with a half-maximal cytotoxic concentration (CC50) in the test filed under Mus musculus (Mus musculus) of 89 µM.
The corresponding values for `Cn1c(C2OC2(C)c2ccccc2)cc(=O)n(C)c1=O` (configuration not stated) are >0.81 µM, 470 nM and 7.3 µM.
In the case of `Cn1c(C2OC2c2ccccc2)cc(=O)n(C)c1=O` (stereo in doubt; 6c), the MTC in the test with MDCK [1] was 380 µM. Besides, the EC50 in the test on MDCK [2] was 193000 nM. Also, the CC50 in the test filed under Mus musculus was > 380 µM.
For the compound `Cn1c(OC2CCCCC2)nc(CC2(c3ccccc3)CO2)cc1=O` (configuration not stated), the MTC with MDCK [1] is 294 µM. For the same compound, the EC50 in the test on MDCK [2] (Canis lupus familiaris, MDCK) was found to be 147000 nM. Further, the CC50 in the test listed under Mus musculus (Mus musculus) is > 294 µM.
With `Cn1c(C2OC2c2ccccc2)cc(=O)n(C)c1=O` (stereo in doubt; 6b), the MTC in the test on MDCK [1] was >0.8 µM. The EC50 with MDCK [2] was 380 nM. In the test listed under Mus musculus, the midpoint of cytotoxicity, the CC50, lay at 7.7 µM.
In turn, `Cn1c(CC2(c3ccccc3)CO2)cc(=O)n(C)c1=O` (configuration not stated) registered an MTC in the test on MDCK [1] of 0.37 µM. Also, the EC50 in the test with MDCK [2] (Canis lupus familiaris, MDCK) was 180 nM. For the same compound, it took 3.7 µM to reach half-maximal cytotoxicity in the test listed under Mus musculus (Mus musculus) (CC50).
As for `Cn1c(CC2(C(C)(C)C)CO2)cc(=O)n(C)c1=O` (configuration not stated), the MTC in the test with MDCK [1] is >0.79 µM. Moreover, the EC50 in the test on MDCK [2] (Canis lupus familiaris, MDCK) was 590 nM. Also, in the test filed under Mus musculus (Mus musculus), the midpoint of cytotoxicity, the CC50, lay at 7.9 µM.
For `CCCOc1nc(CC23CCCCC2O3)cc(=O)n1C` (configuration not stated), in that order: >352 µM, 176000 nM and > 352 µM.
For `Cn1c(CC23CCCC2O3)cc(=O)n(C)c1=O` (configuration not stated), in that order: >0.84 µM, 420 nM and 8.4 µM.
